Key:
Format in all cases: biochemical
[1] = system: panel of recombinant human P450s; experiment: Two-step luminescent screen of luciferin derivatives against a panel of recombinant human P450s and HLM; details: 50 μM substrate, panel of FIGS. 17-18
Procedure: P450s are Supersomes™ purchased from Discovery Labware (BD/Gentest). […] HLM is human liver microsomes.
1× substrate concentration: 50 μM.
The HLM reactions contained […] reaction, except where indicated otherwise. Control insect cell membranes were at 50 μg/50 μL.
For FIG. 20, the panel of human P450s was screened as described above.

[2] = target: T1, QuantiLum Luciferase (firefly luciferase) (Photinus pyralis, UniProt P08659); experiment: Residual active QuantiLum luciferase after reaction with derivative (Steady Glo)
T1 construct: purchased Promega Corporation El 70
T1 sequence (P08659 whole entry): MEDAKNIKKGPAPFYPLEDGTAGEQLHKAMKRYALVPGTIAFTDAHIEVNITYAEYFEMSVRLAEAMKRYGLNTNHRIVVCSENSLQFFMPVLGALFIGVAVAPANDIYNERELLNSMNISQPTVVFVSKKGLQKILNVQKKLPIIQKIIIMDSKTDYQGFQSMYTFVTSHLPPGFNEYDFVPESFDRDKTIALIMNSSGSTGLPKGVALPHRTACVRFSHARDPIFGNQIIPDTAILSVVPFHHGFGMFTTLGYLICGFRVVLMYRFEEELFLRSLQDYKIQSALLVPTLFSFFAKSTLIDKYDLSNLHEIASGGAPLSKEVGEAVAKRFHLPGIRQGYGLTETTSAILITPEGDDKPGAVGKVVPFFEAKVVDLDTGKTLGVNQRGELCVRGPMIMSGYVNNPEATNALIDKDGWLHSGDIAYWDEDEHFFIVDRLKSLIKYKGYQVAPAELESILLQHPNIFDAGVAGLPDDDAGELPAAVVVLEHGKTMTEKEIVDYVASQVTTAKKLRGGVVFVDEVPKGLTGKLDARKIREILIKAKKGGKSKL
Procedure: (§1) After producing the solutions in Table 37, the volume of all reactions was adjusted to 990 μl with water. […] While the light reading was being taken, a 10 μl sample of the reaction was diluted to 500 μl with enzyme stop solution (cooled on ice to 4° C.) mixed and placed on ice and a second sample of 90 μl of reaction was added to 10 μl of Gel/HPLC stop and the tube placed at −20° C. A timer was started with the start of the first reaction and the start times of the remaining reactions was noted. At 15, 30, 45 and 60 minutes, each reaction was sampled as above and the light produced in the luminometer tubes was measured. At 7 and 22 minutes, the light produced in the luminometer tubes was read, but the reactions were not sampled.
After all samples were taken, 50 μl of the sample diluted into enzyme stop solution was mixed with 50 μl of Steady Glo Luciferase Reagent (Promega) and the light produced measured after incubating at room temperature for 10 minutes. This measured the active luciferase in the initial reaction.
as §1, with “40,” for “37,”, “−200” for “−20°”

[3] = target: T1, QuantiLum Luciferase (firefly luciferase); experiment: Light emission of QuantiLum firefly luciferase with luciferin derivatives; details: for Light reading (Turner 20/20) at time 0 / Light reading at time 0 min: 0 min; for Light reading (Turner 20/20) at time 7 / Light reading at time 7 min: 7 min; for Light reading (Turner 20/20) at time 15 / Light reading at time 15 min: 15 min; for Light reading (Turner 20/20) at time 22 / Light reading at time 22 min: 22 min; for Light reading (Turner 20/20) at time 30 / Light reading at time 30 min: 30 min; for Light reading (Turner 20/20) at time 45 / Light reading at time 45 min: 45 min; for Light reading (Turner 20/20) at time 60 / Light reading at time 60 min: 60 min
Procedure: Gel and HPLC stop solution. Solid EDTA (free acid) was placed in a beaker with water and the pH of the solution adjusted to pH 7.0. The solution was then adjusted in volume to produce a solution 400 mM in EDTA.
Enzyme stop solution. A solution was prepared containing 20 mM Bis Tris, pH 6.5, 2 mM EDTA and 1 mg/ml bovine serum albumin.
Reaction buffer (2×). A solution was made containing 100 mM HEPES buffer, pH 8.0; 10 mM MgCl2.
DTT stock. Solid DTT (dithiothreitol) was dissolved in water and then adjusted to pH 8.0 with solid sodium hydroxide. The solution was then adjusted in volume to produce a solution 1 M in DTT.
as §1
as §1, with “40,” for “37,”, “−200” for “−20°”
The DTT, Coenzyme A, and QuantiLum stock solutions are the same as those described herein.
This solution was diluted 1:1 with water to produce an enzyme solution labeled “No addition.” This solution was diluted 1:1 with 400 mM DTT, pH 8.0 to produce a solution labeled+DTT. This solution was diluted 1: 1 with 4 mM Coenzyme A to produce a solution labeled+Co A. Finally, this solution was diluted 1: 1 with a solution having both 4 mM Coenzyme A and 400 mM DTT to produce a solution labeled+Co A & DTT.
50 μl samples of these solutions were placed in the wells of luminometer microtiter plates, row A to row G, respectively. Row H of the plates was given 50 μl of water.
Reactions in these plates were initiated by addition of 50 μl of solution containing QuantiLum luciferase using a 12 channel micropipette. The solutions added to the rows were: columns 1, 5, and 9—no addition solution; columns 2, 6, and 10—+Co A solution; columns 3, 7, and 11—+DTT solution, and; columns 4, 8, and 12—+Co A and DTT solution. After addition of the enzyme solution to the first row on every plate, a timer was started. After addition of the enzyme solution to the last row on each plate, the plate was sealed and read on a Veritas luminometer.

[4] = system: thermostable luciferase (Luc 146-1H2); experiment: Residual active thermostable luciferase after reaction with derivative (Steady Glo); details: substrate 100; +DTT; sample taken 60 min
Procedure: After assembly, the reactions were initiated by addition of 25 μl of the thermostable luciferase stock solution above and mixing the tube contents. A 50 μl sample was immediately removed and placed in a luminometer tube and the light read and the tube then replaced in a tube rack at room temperature. While the light reading was being taken, a 5 μl sample of the remaining reaction (which was kept at room temperature) was diluted into 495 μl of 50 mM BisTris, pH 6.5, 1 mg/ml BSA, 1 mM EDTA prechilled to 4° C. and the tube mixed and placed on ice. The light produced by the samples in the luminometer tubes were re-read at 20, 40, 60, 90 and 120 minutes post enzyme addition. Additional 5 μl samples were taken and diluted as above at 60 and 120 minutes post enzyme addition. Once all these readings and samples were taken, 50 μl of the diluted samples was mixed with 50 μl of Steady Glo in luminometer tubes, the tubes incubated 10 minutes […] then the light produced was read on a Turner TD 20/20 luminometer.

O=C(Nc1ccc2nc(C3=NC(C(=O)O)CS3)sc2c1)OCc1ccccc1 (stereo not drawn) [N-benzyloxycarbonyl aminoluciferin]
P450 enzyme activity / selectivity (words) [1]: strong selectivity for CYP1A1

COc1ccc2cc(C3=N[C@@H](C(=O)O)CS3)ccc2c1 [Naphthylluciferin 6-methyl ether]
P450 enzyme activity / selectivity (words) [1]: substrate for 4A11

4-methyl-6-(O-methyl)-luciferin
P450 enzyme activity / selectivity (words) [1]: enhanced selectivity for 1 A2, 2C8 and 2C9

O=C(O)[C@H]1CSC(c2nc3ccc(OCCO)cc3s2)=N1 [2 hydroxyethoxyluciferin derivative, 6′-(2-hydroxyethoxyl) luciferin]
loss of luciferase activity on transformation of substrate ([2]; no additive (reactions 3A, 4A)): significant and substantial reduction in enzyme activity
Light reading (Turner 20/20) at time 0 ([3]; +Co A): 810,864
Light reading (Turner 20/20) at time 7 ([3]; +Co A): 125,718
Light reading (Turner 20/20) at time 15 ([3]; +Co A): 61,287
Light reading (Turner 20/20) at time 22 ([3]; +Co A): 326,424
Light reading (Turner 20/20) at time 30 ([3]; +Co A): 169,972
Light reading (Turner 20/20) at time 45 ([3]; +Co A): 78,909
Light reading (Turner 20/20) at time 60 ([3]; +Co A): 45,156
Light reading (Turner 20/20) at time 0 ([3]; +DTT): 2,515,513
Light reading (Turner 20/20) at time 7 ([3]; +DTT): 294,885
Light reading (Turner 20/20) at time 15 ([3]; +DTT): 146,849
Light reading (Turner 20/20) at time 22 ([3]; +DTT): 335,031
Light reading (Turner 20/20) at time 30 ([3]; +DTT): 237,487
Light reading (Turner 20/20) at time 60 ([3]; +DTT): 67,064
Light reading (Turner 20/20) at time 0 ([3]; No Additive): 749,597
Light reading (Turner 20/20) at time 7 ([3]; No Additive): 114,541
Light reading (Turner 20/20) at time 15 ([3]; No Additive): 63,691
Light reading (Turner 20/20) at time 22 ([3]; No Additive): 259,945
Light reading (Turner 20/20) at time 30 ([3]; No Additive): 233,600
Light reading (Turner 20/20) at time 45 ([3]; No Additive): 51,233
Light reading (Turner 20/20) at time 60 ([3]; No Additive): 44,782
Light reading (Turner 20/20) at time 0 ([3]; no ATP): 87
Light reading (Turner 20/20) at time 7 ([3]; no ATP): 106
Light reading (Turner 20/20) at time 15 ([3]; no ATP): 387,497
Light reading (Turner 20/20) at time 22 ([3]; no ATP): 218,745
Light reading (Turner 20/20) at time 45 ([3]; no ATP): 11,499
Light reading (Turner 20/20) at time 60 ([3]; no ATP): 20,100

COC(=O)[C@H]1CSC(c2nc3ccccc3s2)=N1 [carboxyl methyl ester of deoxyluciferin]
P450 enzyme activity / selectivity (words) [1]: substantial activity with CYP2C19 and strong selectivity for this enzyme over the others tested

O=C(O)[C@H]1CSC(c2nc3ccc(OCc4ccccc4)cc3s2)=N1 [L'in-BE]
light value of diluted reaction sample in Steady Glo [4]: 962.1

Cc1cc(C)c(COc2ccc3nc(C4=N[C@@H](C(=O)O)CS4)sc3c2)c(C)c1 [6′(2,4,6-trimethylbenzyloxy)-luciferin]
P450 enzyme activity / selectivity (words) [1]: selective for three members of the CYP3A subfamily, CYP3A4, CYP3A5 and CYP3A7
P450 enzyme activity / selectivity (words) ([1]; listed as 6(2,4,6 trimethylbenzyl)-luciferin): showed substantial activity with CYP3A4 and did not show substantial cross reactivity with CYP4F12

O=C(O)[C@H]1CSC(c2ccc3cc(OCOCc4ccccc4)ccc3n2)=N1 [6′benzyloxymethoxy-quinolylluciferin]
P450 enzyme activity / selectivity (words) [1]: selective for three members of the CYP3A subfamily, CYP3A4, CYP3A5 and CYP3A7

COc1ccc2nc(C3=NC(C(=O)O)CS3)cnc2c1 (stereo not drawn) [quinoxalylluciferin 6-methyl ether]
P450 enzyme activity / selectivity (words) [1]: substrate for 4A11

COc1ccc2nc(C3=NC(C(=O)O)CS3)sc2c1 (stereo not drawn) [Luc’in ME]
Light reading from residual active enzyme at time 0 min ([2]; +Co A): 163.3
Light reading from residual active enzyme at time 15 min ([2]; +Co A): 161.8
Light reading from residual active enzyme at time 30 min ([2]; +Co A): 147.7
Light reading from residual active enzyme at time 45 min ([2]; +Co A): 144.7
Light reading from residual active enzyme at time 60 min ([2]; +Co A): 145.6
Light reading from residual active enzyme at time 0 min ([2]; +DTT): 170
Light reading from residual active enzyme at time 15 min ([2]; +DTT): 172.3
Light reading from residual active enzyme at time 30 min ([2]; +DTT): 164.3
Light reading from residual active enzyme at time 45 min ([2]; +DTT): 161.6
Light reading from residual active enzyme at time 60 min ([2]; +DTT): 167.6
Light reading from residual active enzyme at time 0 min ([2]; +EDTA): 150.5
Light reading from residual active enzyme at time 15 min ([2]; +EDTA): 150
Light reading from residual active enzyme at time 30 min ([2]; +EDTA): 152.1
Light reading from residual active enzyme at time 45 min ([2]; +EDTA): 152.8
Light reading from residual active enzyme at time 60 min ([2]; +EDTA): 151
Light reading from residual active enzyme at time 0 min ([2]; No addition): 141.7
Light reading from residual active enzyme at time 15 min ([2]; No addition): 35.4
Light reading from residual active enzyme at time 30 min ([2]; No addition): 91.82
Light reading from residual active enzyme at time 45 min ([2]; No addition): 85.72
Light reading from residual active enzyme at time 60 min ([2]; No addition): 81.76
Light reading from residual active enzyme at time 0 min ([2]; w/o ATP): 170
Light reading from residual active enzyme at time 15 min ([2]; w/o ATP): 168.9
Light reading from residual active enzyme at time 30 min ([2]; w/o ATP): 175.6
Light reading from residual active enzyme at time 45 min ([2]; w/o ATP): 181.9
Light reading from residual active enzyme at time 60 min ([2]; w/o ATP): 173.6
Light reading at time 0 min ([3]; +Co A): 18.31
Light reading at time 7 min ([3]; +Co A): 2.276
Light reading at time 15 min ([3]; +Co A): 1.239
Light reading at time 22 min ([3]; +Co A): 1.178
Light reading at time 30 min ([3]; +Co A): 1.145
Light reading at time 45 min ([3]; +Co A): 0.916
Light reading at time 60 min ([3]; +Co A): 0.714
Light reading at time 0 min ([3]; +DTT): 38.69
Light reading at time 7 min ([3]; +DTT): 6.42
Light reading at time 15 min ([3]; +DTT): 4.073
Light reading at time 22 min ([3]; +DTT): 3.31
Light reading at time 30 min ([3]; +DTT): 2.708
Light reading at time 45 min ([3]; +DTT): 2.202
Light reading at time 60 min ([3]; +DTT): 1.996
Light reading at time 0 min ([3]; +EDTA): 1.067
Light reading at time 7 min ([3]; +EDTA): 0.117
Light reading at time 15 min ([3]; +EDTA): 0.058
Light reading at time 22 min ([3]; +EDTA): 0.042
Light reading at time 30 min ([3]; +EDTA): 0.024
Light reading at time 45 min ([3]; +EDTA): 0.046
Light reading at time 60 min ([3]; +EDTA): 0.012
Light reading at time 0 min ([3]; No addition): 23.46
Light reading at time 7 min ([3]; No addition): 3.144
Light reading at time 15 min ([3]; No addition): 1.767
Light reading at time 22 min ([3]; No addition): 1.317
Light reading at time 30 min ([3]; No addition): 1.22
Light reading at time 45 min ([3]; No addition): 0.982
Light reading at time 60 min ([3]; No addition): 0.851
Light reading at time 0 min ([3]; w/o ATP): 0
Light reading at time 7 min ([3]; w/o ATP): 0.017
Light reading at time 15 min ([3]; w/o ATP): 0.016
Light reading at time 22 min ([3]; w/o ATP): 0
Light reading at time 30 min ([3]; w/o ATP): 0
Light reading at time 45 min ([3]; w/o ATP): 0.017
Light reading at time 60 min ([3]; w/o ATP): 0.011
